Key:
[1] = system: Human immunodeficiency virus 1; experiment: Antiviral activity against wild type HIV-1 3B infected in human MT4 cells assessed as protection against virus-induced cytopathogenicity after 5 days by MTT assay; type: functional, organism-based; conditions: Human immunodeficiency virus 1, 3B, MT4, 120 h
[2] = Cytotoxicity against human MT4 cells assessed as cell viability after 5 days by MTT assay; type: cell-based
[3] = Selectivity index, ratio of CC50 for human MT4 cells to EC50 for wild type HIV-1 3B infected in human MT4 cells; type: toxicity, cell-based; conditions: read-out: Ratio CC50/EC50
[4] = system: Human immunodeficiency virus 1; experiment: Antiviral activity against HIV-1 RESO56 harboring RT K103N/Y181C double mutant infected in human MT4 cells assessed as protection against virus-induced cytopathogenicity after 5 days by MTT assay; type: functional, organism-based; conditions: Human immunodeficiency virus 1, RESO56, MT4, 120 h
[5] = system: Human immunodeficiency virus 2; experiment: Antiviral activity against HIV-2 ROD infected in human MT4 cells assessed as protection against virus-induced cytopathogenicity after 5 days by MTT assay; type: functional, organism-based; conditions: Human immunodeficiency virus 2, ISOLATE ROD, MT4, 120 h
[6] = biological target: Human immunodeficiency virus type 1 reverse transcriptase (Human immunodeficiency virus 1, UniProt Q72547); experiment: Inhibition of recombinant wild type HIV-1 reverse transcriptase p66/p51 expressed in Escherichia coli JM109 using poly(rA)/oligo(dT)16 (1:1.2) as template/primer after 40 mins by spectrofluorometric analysis
[7] = system: Human immunodeficiency virus 1; experiment: Potency index, ratio of DDI EC50 to compound EC50 for wild type HIV-1 3B infected in human MT4 cells; type: functional

Row | SMILES | EC50 [1] | CC50 at 120 h [2] | selectivity ratio [3] | EC50 [4] | EC50 [5] | IC50 [6] | Ratio EC50 [7]
1 | COc1ccc(CSc2nc(C(=O)c3cccc(Cl)c3)c(C)c(=O)[nH]2)cc1 | 7.21 µM | 152 µM | 21 | > 152 µM | > 152 µM |  | 
2 | COc1ccc(CSc2nc(C(=O)c3ccc(Cl)cc3)c(C)c(=O)[nH]2)cc1 | ≥ 151 µM | ≥ 151 µM |  |  | > 151 µM |  | 
3 | COc1ccc(CSc2nc(C(=O)c3cccc(Br)c3)c(C)c(=O)[nH]2)cc1 | 16 µM | 201 µM | 13 | > 201 µM | > 201 µM |  | 
4 | COc1ccc(CSc2nc(C(=O)c3ccc(Br)cc3)c(C)c(=O)[nH]2)cc1 | ≥ 252 µM | 252 µM | ≤ 1 |  | > 252 µM |  | 
5 | COc1ccc(CSc2nc(C(=O)c3ccccc3F)c(C)c(=O)[nH]2)cc1 | 1.4 µM | 175 µM | 124 | > 175 µM | > 175 µM | 2.41 µM | 
6 | COc1ccc(CSc2nc(C(=O)c3cccc(F)c3)c(C)c(=O)[nH]2)cc1 | 6.35 µM | 225 µM | 35 | > 225 µM | > 225 µM |  | 
7 | COc1ccc(CSc2nc(C(=O)c3ccc(F)cc3)c(C)c(=O)[nH]2)cc1 | ≥ 325 µM | ≥ 325 µM |  |  | > 325 µM |  | 
8 | CCc1c(C(=O)c2cccc(Br)c2)nc(SCc2ccc(OC)cc2)[nH]c1=O | 1.18 µM | 98.9 µM | 84 | > 98.9 µM | > 98.9 µM |  | 
9 | CCc1c(C(=O)c2cccc(F)c2)nc(SCc2ccc(OC)cc2)[nH]c1=O | 0.38 µM | 167 µM | 436 | > 167 µM | > 167 µM | 0.19 µM | 50
10 | COc1ccc(CSc2nc(C(=O)c3ccc(Br)cc3)c(C(C)C)c(=O)[nH]2)cc1 | ≥ 42.5 µM | 42.5 µM | ≤ 1 |  | > 42.5 µM |  | 
11 | COc1ccc(CSc2nc(C(=O)c3ccccc3F)c(C(C)C)c(=O)[nH]2)cc1 | 0.27 µM | 38.2 µM | 145 | > 38.2 µM | > 38.2 µM | 0.072 µM | 50
12 | COc1ccc(CSc2nc(C(=O)c3cccc(F)c3)c(C(C)C)c(=O)[nH]2)cc1 | 0.29 µM | 132 µM | 472 | > 132 µM | > 132 µM | 0.04 µM | 50
13 | COc1ccc(CSc2nc(C(=O)c3ccc(F)cc3)c(C(C)C)c(=O)[nH]2)cc1 | 6.52 µM | 135 µM | 21 | > 135 µM | > 135 µM |  | 
14 | COc1ccc(CSc2nc(C(=O)c3ccc(C(C)(C)C)cc3)c(C)c(=O)[nH]2)cc1 | ≥ 126 µM | 126 µM | ≤ 1 |  | > 126 µM |  | 
15 | COc1ccc(CSc2nc(C(=O)c3ccc(F)c(F)c3)c(C)c(=O)[nH]2)cc1 | ≥ 127 µM | 127 µM | ≤ 1 | > 127 µM | > 127 µM |  | 
16 | COc1ccc(CSc2nc(C(=O)c3cc(F)cc(F)c3)c(C)c(=O)[nH]2)cc1 | 2.71 µM | 86.9 µM | 32 | > 86.9 µM | > 86.9 µM |  | 
17 | CCc1c(C(=O)c2cc(F)cc(F)c2)nc(SCc2ccc(OC)cc2)[nH]c1=O | 0.26 µM | 139 µM | 541 | > 139 µM | > 139 µM | 0.16 µM | 50
18 | CC(C)Nc1cccnc1N1CCN(C(=O)c2cc3cc(NS(C)(=O)=O)ccc3[nH]2)CC1 [DELAVIRDINE] | 0.095 µM | 36.2 µM | 379 | > 36.2 µM |  |  | 
19 | O=c1[nH]cnc2c1ncn2[C@H]1CC[C@@H](CO)O1 [DIDANOSINE] | 17.2 µM | 212 µM | 12 |  | 15.3 µM |  | 
20 | O=C1Nc2ccc(Cl)cc2[C@@](C#CC2CC2)(C(F)(F)F)O1 [EFAVIRENZ] | 0.0067 µM | 6.34 µM |  | 0.46 µM |  |  | 
21 | Cc1ccnc2c1NC(=O)c1cccnc1N2C1CC1 [NEVIRAPINE] | 0.084 µM | 15 µM |  | 1.97 µM |  |  | 
22 | Nc1ccn([C@H]2CC[C@@H](CO)O2)c(=O)n1 [ZALCITABINE] | 0.46 µM | 94.7 µM | 208 |  |  |  | 
23 | Cc1cn([C@H]2C[C@H](N=[N+]=[N-])[C@@H](CO)O2)c(=O)[nH]c1=O [ZIDOVUDINE] | 0.0059 µM |  | 15800 | 0.0066 µM | 0.0064 µM |  | 
